This is an account of results in PubChem BioAssay AID1745844 (Carcinogenic Potency Database (CPDB), 2022).

The test system of the data set is rodent lifetime carcinogenesis bioassay, tumor incidence TD50. The data set is described as follows: carcinogenic potency in animals, long-term in vivo studies, CPDB compilation (AID 1745844). The following applies: in feed.

SMILES strings stand for the structures. Active and inactive are the calls of the source. The rule behind the calls is not given here.

As to `Clc1cccc(-c2ccc(Cl)c(Cl)c2Cl)c1Cl`, the TD50 (mouse, strain BALB/cJ, males, site: liver, lesion: hepatoma, dosed 26 weeks, study length 47 weeks) is 64.6 mg/kg/day; the TD50 (mouse, strain BALB/cJ, males, site: liver, lesion: hepatoma, dosed 47 weeks, study length 47 weeks) was 9.58 mg/kg/day; the TD50 (rat, strain Fischer 344, females, site: liver, lesion: adenoma, NOS, dosed 105 weeks, study length 105 weeks) is 34.8 mg/kg/day; the TD50 (rat, strain Fischer 344, males, site: all sites, lesion: leukemia + lymphoma, dosed 105 weeks, study length 105 weeks) was 5.94 mg/kg/day; the TD50 (rat, strain Fischer 344, males, site: all sites, lesion: leukemia, dosed 105 weeks, study length 105 weeks) came out at 6.75 mg/kg/day; the TD50 (rat, strain Fischer 344, males, site: any site (literature study), lesion: several types, types named in the paper, dosed 105 weeks, study length 105 weeks) is 3.23 mg/kg/day. For the same compound, the TD50 by setting is: (rat, strain Fischer 344, males, site: cecum + jejunum + stomach, lesion: adenocarcinoma, NOS, dosed 105 weeks, study length 105 weeks) 34.6 mg/kg/day; (rat, strain Fischer 344, males, site: liver, lesion: adenoma, NOS + hepatocellular carcinoma, dosed 105 weeks, study length 105 weeks) 15.1 mg/kg/day; (rat, strain Fischer 344, males, site: liver, lesion: hepatocellular adenoma + hepatocellular carcinoma + neoplastic nodule, dosed 105 weeks, study length 105 weeks) 20.8 mg/kg/day; (rat, strain Sprague-Dawley, females, site: liver, lesion: cholangioma, dosed 104 weeks, study length 104 weeks) 15.3 mg/kg/day; (rat, strain Sprague-Dawley, females, site: liver, lesion: hepatocellular adenoma, dosed 104 weeks, study length 104 weeks) 3.07 mg/kg/day; (rat, strain Sprague-Dawley, females, site: liver, lesion: hepatocellular carcinoma, dosed 104 weeks, study length 104 weeks) 28.6 mg/kg/day. Besides, the TD50 (rat, strain Sprague-Dawley, females, site: liver, lesion: several types, types named in the paper, dosed 104 weeks, study length 104 weeks) was 2.82 mg/kg/day; the TD50 (rat, strain Sprague-Dawley, males, site: liver, lesion: several types, types named in the paper, dosed 104 weeks, study length 104 weeks) was determined as 55.1 mg/kg/day; the TD50 (rat, strain Sprague-Dawley, males, site: thyroid gland, lesion: follicular-cell adenoma, dosed 104 weeks, study length 104 weeks) came to 20.2 mg/kg/day; the TD50 (rat, strain Sprague-Dawley, males, site: thyroid gland, lesion: follicular-cell carcinoma, dosed 104 weeks, study length 104 weeks) came to 89 mg/kg/day; the TD50 (rat, strain Sprague-Dawley, males, site: thyroid gland, lesion: several types, types named in the paper, dosed 104 weeks, study length 104 weeks) is 16.1 mg/kg/day. Besides, where the note is “rat, strain Fischer 344, females, site: stomach, lesion: adenocarcinoma, NOS, dosed 105 weeks, study length 105 weeks”, the carcinogen call was “a”.
In the case of `COc1cc(/C=C/C(=O)O[C@H]2CC[C@]34C[C@]35CC[C@]3(C)[C@@H]([C@H](C)CCC=C(C)C)CC[C@@]3(C)[C@@H]5CC[C@H]4C2(C)C)ccc1O`, the TD50 (mouse, strain B6C3F1, females, site: all sites, lesion: malignant lymphoma, dosed 78 weeks, study length 79 weeks) is 5970 mg/kg/day (inactive); the TD50 (mouse, strain B6C3F1, males, site: all sites, lesion: malignant lymphoma, dosed 78 weeks, study length 79 weeks) is 15900 mg/kg/day (inactive); the TD50 (rat, strain F344/DuCrj, males, site: liver, lesion: neoplastic nodule, dosed 104 weeks, study length 105 weeks) is 68500 mg/kg/day (inactive). The carcinogen call was “negative (inactive)” (mouse, strain B6C3F1, females, site: liver, lesion: hepatocellular carcinoma, dosed 78 weeks, study length 79 weeks); “negative (inactive)” (mouse, strain B6C3F1, females, site: liver, lesion: neoplastic nodule, dosed 78 weeks, study length 79 weeks); “negative (inactive)” (mouse, strain B6C3F1, females, site: lung, lesion: alveolar/bronchiolar adenoma, dosed 78 weeks, study length 79 weeks); “negative (inactive)” (mouse, strain B6C3F1, males, site: liver, lesion: hepatocellular carcinoma, dosed 78 weeks, study length 79 weeks); “negative (inactive)” (mouse, strain B6C3F1, males, site: liver, lesion: neoplastic nodule, dosed 78 weeks, study length 79 weeks); “negative (inactive)” (mouse, strain B6C3F1, males, site: lung, lesion: alveolar/bronchiolar adenocarcinoma, dosed 78 weeks, study length 79 weeks). Further, the carcinogen call reads like this: (mouse, strain B6C3F1, males, site: lung, lesion: alveolar/bronchiolar adenoma, dosed 78 weeks, study length 79 weeks) “negative (inactive)”; (rat, strain F344/DuCrj, females, site: liver, lesion: neoplastic nodule, dosed 104 weeks, study length 105 weeks) “negative (inactive)”.
Take `CCN(Cc1cccc(S(=O)(=O)O)c1)c1ccc(C(=C2C=CC(=[N+](CC)Cc3cccc(S(=O)(=O)[O-])c3)C=C2)c2ccccc2)cc1`: the TD50 was 18400 mg/kg/day (inactive) (mouse, strain C3HeB/FeJ, females, site: any site (literature study), lesion: malignant tumor, dosed 104 weeks, study length 104 weeks); 146000 mg/kg/day (inactive) (mouse, strain C3HeB/FeJ, females, site: liver, lesion: several types, types named in the paper, dosed 104 weeks, study length 104 weeks); 146000 mg/kg/day (inactive) (mouse, strain C3HeB/FeJ, females, site: lung, lesion: adenoma, dosed 104 weeks, study length 104 weeks); 20800 mg/kg/day (inactive) (mouse, strain C3HeB/FeJ, males, site: any site (literature study), lesion: several types, types named in the paper, dosed 104 weeks, study length 104 weeks); 26100 mg/kg/day (inactive) (mouse, strain C3HeB/FeJ, males, site: liver, lesion: several types, types named in the paper, dosed 104 weeks, study length 104 weeks); 59200 mg/kg/day (mouse, strain C3HeB/FeJ, males, site: lung, lesion: several types, types named in the paper, dosed 104 weeks, study length 104 weeks). Also, the TD50 was 97500 mg/kg/day (rat, strain Osborne-Mendel, females, site: any site (literature study), lesion: several types, types named in the paper, dosed 104 weeks, study length 104 weeks); 13800 mg/kg/day (rat, strain Osborne-Mendel, females, site: liver, lesion: several types, types named in the paper, dosed 104 weeks, study length 104 weeks); 11400 mg/kg/day (rat, strain Osborne-Mendel, males, site: any site (literature study), lesion: several types, types named in the paper, dosed 104 weeks, study length 104 weeks); 5980 mg/kg/day (rat, strain Osborne-Mendel, males, site: liver, lesion: several types, types named in the paper, dosed 104 weeks, study length 104 weeks); 8370 mg/kg/day (rat, strain Wistar, both sexes, site: abdomen, lesion: malignant lymphoma, dosed 93 weeks, study length 93 weeks); 8370 mg/kg/day (rat, strain Wistar, both sexes, site: mediastinum, lesion: malignant lymphoma, dosed 93 weeks, study length 93 weeks). The TD50 (rat, strain Wistar, both sexes, site: several sites, sites named in the paper, lesion: malignant lymphoma, dosed 93 weeks, study length 93 weeks) was 3920 mg/kg/day. Also, the carcinogen call (mouse, strain C3HeB/FeJ, females, site: any site (literature study), lesion: several types, types named in the paper, dosed 104 weeks, study length 104 weeks) is “negative (inactive)”; the carcinogen call (mouse, strain C3HeB/FeJ, males, site: any site (literature study), lesion: malignant tumor, dosed 104 weeks, study length 104 weeks) was “negative (inactive)”; the carcinogen call (rat, strain Osborne-Mendel, females, site: any site (literature study), lesion: malignant tumor, dosed 104 weeks, study length 104 weeks) is “negative (inactive)”; the carcinogen call (rat, strain Osborne-Mendel, males, site: any site (literature study), lesion: malignant tumor, dosed 104 weeks, study length 104 weeks) was “negative (inactive)”.

Usually TD50 stands for the 50% point of the dose-response relation for the toxic effect studied.
